Patent US20050239656A1, “Pyridine compounds or salts thereof and herbicides containing the same” (priority 2002, published 2005)

What was measured:
prickly sida = experiment: Test Example 2: soil surface treatment, upland pot test; type: in vivo, Sida spinosa L.; details: active ingredient 500 g/ha
How it was run: (§1)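 Herbicidal effect is given as percent growth control, assessed by eye 20 to 28 days post-spray against untreated plants (0) and full kill (100). Treatment: soil-surface application one day after sowing, formulated product diluted in 1,500 L/ha water, upland soil, 1/170,000 ha pots.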

soybean = experiment: as above; type: in vivo, Glycine max Merr.; details: active ingredient 500 g/ha
How it was run: as §1

corn = experiment: as above; type: in vivo, Zea mays L.; details: active ingredient 500 g/ha
How it was run: as §1

rice (var. Nihonbare) = experiment: Test Example 3: paddy pot test, transplanted rice; type: in vivo, Oryza sativa L.; details: applied 4th day after transplantation, visually observed 21st day after application, 0 = non-treated, 100 = complete kill
How it was run: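 Rice (2-leaf stage) was transplanted 3 cm deep into puddled, leveled paddy soil under 3–4 cm flooding. On day 4 after transplanting, diluted wettable powder or emulsifiable concentrate was pipetted onto the water at a predetermined active-ingredient dose. Growth control (0 = untreated, 100 = complete kill) was scored visually 21 days later.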

velvetleaf = experiment: Test Example 2: soil surface treatment, upland pot test; type: in vivo, Abutilon theophrasti MEDIC.; details: active ingredient 500 g/ha
How it was run: as §1

green foxtail = experiment: as above; type: in vivo, Setaria viridis L.; details: active ingredient 500 g/ha
How it was run: as §1

crabgrass = experiment: as above; type: in vivo, Digitaria sanguinalis L.; details: active ingredient 500 g/ha
How it was run: as §1

japanese ribbon wapato = experiment: Test Example 3: paddy pot test, application under submerged conditions; type: in vivo, Sagittaria pygniaea; details: submerged application at primary leaf stage, visually observed 14 days after application, 0 = non-treated, 100 = complete kill
How it was run: (§2)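 After sowing seeds and planting wapato tubers in flooded paddy soil, an aqueous dilution of the formulated compound was added to the 3–4 cm flood water at early leaf stage. Percent growth control relative to the untreated plot was assessed visually on day 14.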

redroot pigweed = experiment: Test Example 2: soil surface treatment, upland pot test; type: in vivo, Amaranthus retroflexus L.; details: active ingredient 500 g/ha
How it was run: as §1

japanese bulrush = experiment: Test Example 3: paddy pot test, application under submerged conditions; type: in vivo, Scirpus juncoides; details: submerged application at 0.5 leaf stage, visually observed 14 days after application, 0 = non-treated, 100 = complete kill
How it was run: as §2

barnyardgrass [1] = experiment: as above; type: in vivo, Echinochloa crus-galli L.; details: submerged application at 0.5 leaf stage, visually observed 14 days after application, 0 = non-treated, 100 = complete kill
How it was run: as §2

barnyardgrass [2] = experiment: Test Example 2: soil surface treatment, upland pot test; type: in vivo, Echinochloa crus-galli L.; details: active ingredient 500 g/ha
How it was run: as §1

rice = experiment: as above; type: in vivo, Oryza sativa L.; details: active ingredient 500 g/ha
How it was run: as §1

[3] = observed day 21, 0 = non-treated, 100 = complete kill

Compound: CC(C)C(c1cnccc1C(F)(F)F)N(C)C(=O)CC1C=CCC1 (centres unmarked) [I-183]
- Growth controlling degree (%) Prickly sida (prickly sida; observed 20th to 28th day): 30%
- Growth controlling degree (%) Soyabean (soybean; observed 20th to 28th day): 10%
- Growth controlling degree (%) Corn (corn; observed 20th to 28th day): 10%
- Growth controlling degree (%) Rice (rice (var. Nihonbare); active ingredient 500 g/ha): 10%
- Growth controlling degree (%) Velvetleaf (velvetleaf; observed 20th to 28th day): 50%
- Growth controlling degree (%) Green foxtail (green foxtail; observed 20th to 28th day): 100%
- Growth controlling degree (%) Crabgrass (crabgrass; observed 20th to 28th day): 100%
- Growth controlling degree (%) Japanese ribbon wapato (japanese ribbon wapato; active ingredient 500 g/ha): 70%
- Growth controlling degree (%) Redroot pigweed (redroot pigweed; observed 20th to 28th day): 95%
- Growth controlling degree (%) Japanese bulrush (japanese bulrush; active ingredient 500 g/ha): 100%
- Growth controlling degree (%) Barnyardgrass (barnyardgrass [1]; active ingredient 500 g/ha): 100%
- Growth controlling degree (%) Barnyardgrass (barnyardgrass [2]; observed 20th to 28th day): 100%
- Growth controlling degree (%) Rice (rice; observed 20th to 28th day): 60%

Compound: CC(C)C(c1cnccc1C(F)(F)F)N(C)C(=O)N(C)c1ccccc1 (centres unmarked) [I-232]
- Growth controlling degree (%) Prickly sida (prickly sida; observed 20th to 28th day): 95%
- Growth controlling degree (%) Soyabean (soybean; observed 20th to 28th day): 0%
- Growth controlling degree (%) Corn (corn; observed 20th to 28th day): 30%
- Growth controlling degree (%) Rice (rice (var. Nihonbare); active ingredient 500 g/ha): 60%
- Growth controlling degree (%) Velvetleaf (velvetleaf; observed 20th to 28th day): 70%
- Growth controlling degree (%) Green foxtail (green foxtail; observed 20th to 28th day): 100%
- Growth controlling degree (%) Crabgrass (crabgrass; observed 20th to 28th day): 100%
- Growth controlling degree (%) Japanese ribbon wapato (japanese ribbon wapato; active ingredient 500 g/ha): 70%
- Growth controlling degree (%) Redroot pigweed (redroot pigweed; observed 20th to 28th day): 80%
- Growth controlling degree (%) Japanese bulrush (japanese bulrush; active ingredient 500 g/ha): 90%
- Growth controlling degree (%) Barnyardgrass (barnyardgrass [1]; active ingredient 500 g/ha): 100%
- Growth controlling degree (%) Barnyardgrass (barnyardgrass [2]; observed 20th to 28th day): 100%
- Growth controlling degree (%) Rice (rice; observed 20th to 28th day): 30%

Compound: Cc1cc(Cl)ccc1OCC(=O)N(C)C(c1cnccc1C(F)(F)F)C(C)C (centres unmarked) [I-234]
- Growth controlling degree (%) Prickly sida (prickly sida; observed 20th to 28th day): 50%
- Growth controlling degree (%) Soyabean (soybean; observed 20th to 28th day): 0%
- Growth controlling degree (%) Corn (corn; observed 20th to 28th day): 0%
- Growth controlling degree (%) Rice (rice (var. Nihonbare); active ingredient 250 g/ha): 0%
- Growth controlling degree (%) Velvetleaf (velvetleaf; observed 20th to 28th day): 30%
- Growth controlling degree (%) Green foxtail (green foxtail; observed 20th to 28th day): 70%
- Growth controlling degree (%) Crabgrass (crabgrass; observed 20th to 28th day): 98%
- Growth controlling degree (%) Japanese ribbon wapato (japanese ribbon wapato; active ingredient 250 g/ha): 40%
- Growth controlling degree (%) Redroot pigweed (redroot pigweed; observed 20th to 28th day): 70%
- Growth controlling degree (%) Japanese bulrush (japanese bulrush; active ingredient 250 g/ha): 90%
- Growth controlling degree (%) Barnyardgrass (barnyardgrass [1]; active ingredient 250 g/ha): 100%
- Growth controlling degree (%) Barnyardgrass (barnyardgrass [2]; observed 20th to 28th day): 95%
- Growth controlling degree (%) Rice (rice; observed 20th to 28th day): 10%

Compound: COc1ccc(OCC(=O)N(C)C(c2cnccc2C(F)(F)F)C(C)C)cc1 (centres unmarked) [I-244]
- Growth controlling degree (%) Prickly sida (prickly sida; observed 20th to 28th day): 60%
- Growth controlling degree (%) Soyabean (soybean; observed 20th to 28th day): 0%
- Growth controlling degree (%) Corn (corn; observed 20th to 28th day): 30%
- Growth controlling degree (%) Rice (rice (var. Nihonbare); active ingredient 250 g/ha): 0%
- Growth controlling degree (%) Velvetleaf (velvetleaf; observed 20th to 28th day): 0%
- Growth controlling degree (%) Green foxtail (green foxtail; observed 20th to 28th day): 80%
- Growth controlling degree (%) Crabgrass (crabgrass; observed 20th to 28th day): 80%
- Growth controlling degree (%) Japanese ribbon wapato (japanese ribbon wapato; active ingredient 250 g/ha): 50%
- Growth controlling degree (%) Redroot pigweed (redroot pigweed; observed 20th to 28th day): 60%
- Growth controlling degree (%) Japanese bulrush (japanese bulrush; active ingredient 250 g/ha): 95%
- Growth controlling degree (%) Barnyardgrass (barnyardgrass [1]; active ingredient 250 g/ha): 100%
- Growth controlling degree (%) Barnyardgrass (barnyardgrass [2]; observed 20th to 28th day): 50%
- Growth controlling degree (%) Rice (rice; observed 20th to 28th day): 20%

Compound: CCc1ccc(OCC(=O)N(C)C(c2cnccc2C(F)(F)F)C(C)C)cc1 (centres unmarked) [I-249]
- Growth controlling degree (%) Prickly sida (prickly sida; [3]): 80%
- Growth controlling degree (%) Soyabean (soybean; [3]): 20%
- Growth controlling degree (%) Corn (corn; [3]): 20%
- Growth controlling degree (%) Rice (rice (var. Nihonbare); active ingredient 250 g/ha): 0%
- Growth controlling degree (%) Velvetleaf (velvetleaf; [3]): 50%
- Growth controlling degree (%) Green foxtail (green foxtail; [3]): 98%
- Growth controlling degree (%) Crabgrass (crabgrass; [3]): 98%
- Growth controlling degree (%) Japanese ribbon wapato (japanese ribbon wapato; active ingredient 250 g/ha): 0%
- Growth controlling degree (%) Redroot pigweed (redroot pigweed; [3]): 60%
- Growth controlling degree (%) Japanese bulrush (japanese bulrush; active ingredient 250 g/ha): 98%
- Growth controlling degree (%) Barnyardgrass (barnyardgrass [1]; active ingredient 250 g/ha): 98%
- Growth controlling degree (%) Barnyardgrass (barnyardgrass [2]; [3]): 95%
- Growth controlling degree (%) Rice (rice; [3]): 20%

Compound: CC(C)C(c1cnccc1C(F)(F)F)N(C)C(=O)COc1ccc(Br)cc1 (centres unmarked) [I-255]
- Growth controlling degree (%) Prickly sida (prickly sida; [3]): 98%
- Growth controlling degree (%) Soyabean (soybean; [3]): 10%
- Growth controlling degree (%) Corn (corn; [3]): 30%
- Growth controlling degree (%) Rice (rice (var. Nihonbare); active ingredient 250 g/ha): 0%
- Growth controlling degree (%) Velvetleaf (velvetleaf; [3]): 70%
- Growth controlling degree (%) Green foxtail (green foxtail; [3]): 98%
- Growth controlling degree (%) Crabgrass (crabgrass; [3]): 98%
- Growth controlling degree (%) Japanese ribbon wapato (japanese ribbon wapato; active ingredient 250 g/ha): 20%
- Growth controlling degree (%) Redroot pigweed (redroot pigweed; [3]): 70%
- Growth controlling degree (%) Japanese bulrush (japanese bulrush; active ingredient 250 g/ha): 95%
- Growth controlling degree (%) Barnyardgrass (barnyardgrass [1]; active ingredient 250 g/ha): 100%
- Growth controlling degree (%) Barnyardgrass (barnyardgrass [2]; [3]): 95%
- Growth controlling degree (%) Rice (rice; [3]): 20%

Compound: CC(C)C(c1cnccc1C(F)(F)F)N(C)C(=O)CSc1ccccc1 (centres unmarked) [I-256]
- Growth controlling degree (%) Prickly sida (prickly sida; [3]): 10%
- Growth controlling degree (%) Soyabean (soybean; [3]): 0%
- Growth controlling degree (%) Corn (corn; [3]): 10%
- Growth controlling degree (%) Rice (rice (var. Nihonbare); active ingredient 250 g/ha): 0%
- Growth controlling degree (%) Velvetleaf (velvetleaf; [3]): 0%
- Growth controlling degree (%) Green foxtail (green foxtail; [3]): 100%
- Growth controlling degree (%) Crabgrass (crabgrass; [3]): 98%
- Growth controlling degree (%) Japanese ribbon wapato (japanese ribbon wapato; active ingredient 250 g/ha): 20%
- Growth controlling degree (%) Redroot pigweed (redroot pigweed; [3]): 80%
- Growth controlling degree (%) Japanese bulrush (japanese bulrush; active ingredient 250 g/ha): 90%
- Growth controlling degree (%) Barnyardgrass (barnyardgrass [1]; active ingredient 250 g/ha): 100%
- Growth controlling degree (%) Barnyardgrass (barnyardgrass [2]; [3]): 70%
- Growth controlling degree (%) Rice (rice; [3]): 0%

Compound: CCN(C(=O)COc1ccccc1)C(c1cnccc1C(F)(F)F)C(C)C (centres unmarked) [I-259]
- Growth controlling degree (%) Prickly sida (prickly sida; [3]): 40%
- Growth controlling degree (%) Soyabean (soybean; [3]): 0%
- Growth controlling degree (%) Corn (corn; [3]): 30%
- Growth controlling degree (%) Rice (rice (var. Nihonbare); active ingredient 250 g/ha): 40%
- Growth controlling degree (%) Velvetleaf (velvetleaf; [3]): 10%
- Growth controlling degree (%) Green foxtail (green foxtail; [3]): 98%
- Growth controlling degree (%) Crabgrass (crabgrass; [3]): 75%
- Growth controlling degree (%) Japanese ribbon wapato (japanese ribbon wapato; active ingredient 250 g/ha): 90%
- Growth controlling degree (%) Redroot pigweed (redroot pigweed; [3]): 50%
- Growth controlling degree (%) Japanese bulrush (japanese bulrush; active ingredient 250 g/ha): 70%
- Growth controlling degree (%) Barnyardgrass (barnyardgrass [1]; active ingredient 250 g/ha): 98%
- Growth controlling degree (%) Barnyardgrass (barnyardgrass [2]; [3]): 70%
- Growth controlling degree (%) Rice (rice; [3]): 10%
